From patent US7521432B2, “Compositions and methods for identifying agents which regulate chromosomal stability, gene activation and aging” (priority 2000, dated 2009)

Test system: human HeLa cell extracts
Test: O-acetyl-ADP ribose utilization by enzymes from human HeLa cell extracts
Format: in vitro ADME
Conditions: HeLa cell extract vs buffer control, time points up to 3 hrs, HPLC
Description: P/CAF [^3H]-monoacetylation of H3 peptide. The histone acetyltransferase P/CAF was used to monoacetylate H3 peptide on Lysine 14 (12). P/CAF (0.175 μM) was mixed with [^3H]-acetyl CoA (33.3 μM, 1.88 Ci/mmol) and H3 peptide (175 μM) for 20 min at 25° C. prior to quenching with TFA to 1%. Mono [^3H]-acetylated H3 peptide was separated from unmodified H3 by HPLC analysis as described above. MALDI/ESI Mass Spectrometry Analyses. MALDI mass spectrometry was performed (Oregon State University, Environmental Health Sciences Center) on a custom-built reflector time-of-flight mass spectrometer equipped with a two-stage delayed extraction source. […] Every mass spectrum was recorded as the sum of 20 consecutive spectra, each produced by a single pulse of photons. […] The amount of [^3H]-AcLys14 H3 peptide and [^3H]-O-acetyl ADP ribose was determined by liquid scintillation counting of these species separated on reverse phase HPLC. […] Protein concentrations of supernatants were determined by the method of Bradford. […]
To provide evidence for the existence of human cellular proteins/enzymes that are capable of binding and catalyzing the conversion or decomposition of O-acetyl-ADP ribose, human HeLa cell extracts were generated and the ability of proteins within the extract to catalyze the decomposition of O-acetyl-ADP ribose was assessed. […]

O-acetyl-ADP ribose
conversion/consumption of O-acetyl-ADP ribose by cell extract: convert O-acetyl-ADP ribose to a distinct, but as yet unidentified species | conversion/consumption of O-acetyl-ADP ribose by cell extract (listed as O-acetyl ADP ribose): capable of consuming O-acetyl ADP ribose
